According to patent publication US10370380B2, “Octahydropyrrolo[3,4-c]pyrrole derivatives and uses thereof” (Sunshine Lake Pharma Co., Ltd., priority 2015, dated 2019):

How the values were obtained:
[1] = Pharmacokinetic evaluation after intravenous or gavage administration to rats; format: in vivo, SD rats; conditions: rats; for AUC(0-inf): read-out: AUCINF; for AUC(0-t): read-out: AUClast; for Cmax: read-out: Cmax; for MRT inf: read-out: MRTINF; for half-life: read-out: T1/2 (converted)
Protocol: (§1) The compounds disclosed herein were administered in form of a saline solution containing 5% DMSO, 5% Kolliphor HS 15, 2% (2% HCl) and 88% Saline, or a solution containing 10% DMSO, 10% Kolliphor HS 15 and 80% physiological saline to the subject animals. For intravenous administration, the animals were administered with a dose of 1 mg/kg or 2 mg/kg, and vein blood samples (0.3 mL) were collected at the time points of 0.083, 0.25, 0.5, 1.0, 2.0, 4.0, 6.0, 8.0 and 24 h after drug administration; plasma samples were collected by centrifugation of the vein blood samples at 3000 rpm or 4000 rpm for 10 minutes, and stored at −20° C. or −70° C. For gavage administration, the animals were administered with a dose of 2.5 mg/kg or 5 mg/kg, and vein blood samples (0.3 mL) were collected at the time points of 0.25, 0.5, 1.0, 2.0, 4.0, 6.0, 8.0 and 24 h after drug administration; plasma samples were collected by centrifugation at 3000 rpm or 4000 rpm for 10 minutes, and stored at −20° C. or −70° C. The positive control is suvorexant.
(§2) The above plasma samples were analyzed by the LC-MS/MS system.

[2] = Pharmacokinetic evaluation after intravenous or gavage administration to dogs; format: in vivo, Beagle dogs; conditions: dogs; for AUC(0-inf): read-out: AUCINF; for AUC(0-t): read-out: AUClast; for Cmax: read-out: Cmax; for MRT inf: read-out: MRTINF; for half-life: read-out: T1/2 (converted)
Protocol: as §1, §2

hERG channel = molecular target: T1, hERG channel (Homo sapiens, UniProt Q12809); test: hERG fluorescence polarization assay (potential of inducing QT interval prolongation); format: binding
T1 construct: purchased Invitrogen
Protocol: The potential of the compound disclosed herein inducing QT interval prolongation was evaluated by detecting if the compound would block the hERG channel. The specific test method is as follows:
Precisely weighed compound disclosed herein was dissolved in DMSO to formulate a solution at the highest concentration of 10.0 mM, and then the solution was diluted to a initial concentration of 120.0 μM with hERG FP Assay Buffer (Invitrogen); the hERG Tracer Red stock solution (Invitrogen) and the positive control E-4031 stock solution (Invitrogen) were respectively diluted to initial concentrations of 4.0 nM and 120.0 μM with hERG FP Assay Buffer (Invitrogen). […]
The above-mentioned solution of the compound disclosed herein and E-4031 at the initial concentration of 120 μM were respectively diluted with hERG FP Assay Buffer 5-fold in series to provide 8 concentration of 120.0 μM, 24.0 μM, 4.8 μM, 960.0 nM, 192.0 nM, 38.4 nM, 7.7 nM and 1.5 nM. […] After that, the 384-well plate was put into an oscillator (PHMP-4, Grant-sio), in 25° C., 250 rpm, to incubate for 4 hours, and the fluorescence polarization values were measured by multi-function microplate reader (PHERAStarFS, BMG LABTECH) and corrected with the minimum and maximum fluorescence polarization values of E-4031, and the IC50 of the compound disclosed herein was calculated by GraphPad software. […]

[3] = Stability in human liver microsome; format: in vitro ADME; conditions: microsomes, pH 4, human liver microsome 0.5 mg/mL, 1 μM, 37° C., NADPH
Protocol: A mixture of the compound of the invention and human liver microsome in 0.1 M potassium phosphate buffer (containing 1.0 mM EDTA, pH=4) was incubated at 37° C., the sample concentrations at different incubation times were measured, and then the half life of the compound was calculated by plotting “the relative amount of the compound” against “incubation time” by using software GraphPad Prism 5.01, and intrinsic clearance was calculated. The experiment system shown as table 5:
The sample was analyzed by LC/MS/MS (ESI […] source and waters xbridge C18 EB-A-1420 chromatographic column were adopted), the mobile phases were an aqueous solution with 2 mM ammonium formate and 0.1% formic acid (mobile phase A) and an methanol solution with 2 mM ammonium formate and 0.1% formic acid (mobile phase B), the flow rate was 0.4 mL/min; the column temperature was 40° C. The ratio of the sample peak area to the internal standard peak area was obtained through LC/MS/MS analysis, the content of the compound at 0 time point was as 100%, the relative content of the compound at each time point was calculated. The half life of the compound was calculated by plotting “the relative amount of the compound” against “incubation time”, and intrinsic clearance was calculated.
The positive control is suvorexant.

[4] = beagle, dog, in vivo, iv, 1 mg/kg
[5] = beagle, dog, in vivo, po, 5 mg/kg

T1 sequence (Q12809 whole entry): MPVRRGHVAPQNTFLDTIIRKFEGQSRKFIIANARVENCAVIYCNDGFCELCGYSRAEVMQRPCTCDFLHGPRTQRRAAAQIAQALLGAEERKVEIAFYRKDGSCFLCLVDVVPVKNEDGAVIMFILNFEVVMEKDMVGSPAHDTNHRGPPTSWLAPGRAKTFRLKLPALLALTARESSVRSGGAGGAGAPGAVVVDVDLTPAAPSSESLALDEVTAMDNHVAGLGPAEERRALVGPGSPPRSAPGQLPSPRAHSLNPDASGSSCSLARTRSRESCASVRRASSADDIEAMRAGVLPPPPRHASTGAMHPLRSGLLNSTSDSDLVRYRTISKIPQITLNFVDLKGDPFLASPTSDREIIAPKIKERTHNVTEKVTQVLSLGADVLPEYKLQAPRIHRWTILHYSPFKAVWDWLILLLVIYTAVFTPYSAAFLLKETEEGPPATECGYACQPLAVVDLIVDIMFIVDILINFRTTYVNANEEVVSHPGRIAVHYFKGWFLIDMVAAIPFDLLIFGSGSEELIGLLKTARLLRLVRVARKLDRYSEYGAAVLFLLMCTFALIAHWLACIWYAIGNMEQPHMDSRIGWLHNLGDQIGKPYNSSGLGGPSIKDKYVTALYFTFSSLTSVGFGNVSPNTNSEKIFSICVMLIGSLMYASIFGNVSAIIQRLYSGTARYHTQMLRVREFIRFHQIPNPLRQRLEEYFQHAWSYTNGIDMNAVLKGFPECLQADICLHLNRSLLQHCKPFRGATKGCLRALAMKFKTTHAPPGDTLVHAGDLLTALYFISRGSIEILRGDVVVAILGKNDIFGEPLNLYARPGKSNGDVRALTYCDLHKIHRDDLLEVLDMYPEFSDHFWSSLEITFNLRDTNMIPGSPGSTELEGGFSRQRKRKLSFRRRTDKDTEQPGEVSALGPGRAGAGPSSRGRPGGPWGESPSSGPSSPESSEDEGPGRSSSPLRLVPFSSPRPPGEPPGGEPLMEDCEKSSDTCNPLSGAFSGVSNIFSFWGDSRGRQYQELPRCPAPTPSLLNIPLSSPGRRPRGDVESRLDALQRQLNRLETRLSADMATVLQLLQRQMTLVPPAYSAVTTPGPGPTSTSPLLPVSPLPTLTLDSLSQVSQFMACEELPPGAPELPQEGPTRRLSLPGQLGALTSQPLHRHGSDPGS

Cc1ccc(-n2nccn2)c(C(=O)N2CCN(c3nc4cc(Cl)ccc4o3)CC[C@H]2C)c1 [suvorexant, reference compound]
AUC(0-inf) ([1]; SD, rat, in vivo, iv, 2 mg/kg): 655 ng·h/mL
AUC(0-t) ([1]; SD, rat, in vivo, iv, 2 mg/kg): 655 ng·h/mL
clearance ([1]; SD, rat, in vivo, iv, 2 mg/kg, read-out: Cl): 51.2 mL/min/kg
Cmax ([1]; SD, rat, in vivo, iv, 2 mg/kg): 784 ng/mL
MRT inf ([1]; SD, rat, in vivo, iv, 2 mg/kg): 0.708 h
half-life ([1]; SD, rat, in vivo, iv, 2 mg/kg): 34.1 min
Vd ([1]; SD, rat, in vivo, iv, 2 mg/kg, read-out: Vss): 2.17 L/kg
AUC(0-inf) ([1]; SD, rat, in vivo, po, 5 mg/kg): 530 ng·h/mL
AUC(0-t) ([1]; SD, rat, in vivo, po, 5 mg/kg): 528 ng·h/mL
Cmax ([1]; SD, rat, in vivo, po, 5 mg/kg): 249 ng/mL
MRT inf ([1]; SD, rat, in vivo, po, 5 mg/kg): 1.95 h
half-life ([1]; SD, rat, in vivo, po, 5 mg/kg): 59.4 min
F ([1]; po, 5 mg/kg): 32.4%
AUC(0-inf) [2, 4]: 5960 ng·h/mL
AUC(0-t) [2, 4]: 5750 ng·h/mL
clearance ([2]; beagle, dog, in vivo, iv, 1 mg/kg, read-out: Cl): 2.82 mL/min/kg
Cmax [2, 4]: 2100 ng/mL
MRT inf [2, 4]: 5.39 h
half-life [2, 4]: 347 min
Vd ([2]; beagle, dog, in vivo, iv, 1 mg/kg, read-out: Vss): 0.919 L/kg
AUC(0-inf) [2, 5]: 14300 ng·h/mL
AUC(0-t) [2, 5]: 13600 ng·h/mL
Cmax [2, 5]: 1640 ng/mL
MRT inf [2, 5]: 7.2 h
half-life [2, 5]: 343 min
F ([2]; po, 5 mg/kg): 48%
IC50 (hERG channel): 1790 nM
half-life at 1 μM ([3]; read-out: Half life): 9.85 min
CLint scaled at 1 μM ([3]; read-out: intrinsic clearance): 176 mL/min/kg
